One experiment relates to over 40 GPCR targets. Kind of experiment: Counter screening over a panel of GPCR targets. In kind it is binding. Conditions: panel of over 40 GPCR proteins.
In another experiment the target is T1, EPAC1-ΔDEP (aa. 149-881) (Homo sapiens, UniProt O95398).
T1 construct: EPAC1-ΔDEP (149-881); GST (N); made in house; host or cells: Escherichia coli BL21 Star (DE3)
T1 sequence (O95398 149-881 isoform O95398-3): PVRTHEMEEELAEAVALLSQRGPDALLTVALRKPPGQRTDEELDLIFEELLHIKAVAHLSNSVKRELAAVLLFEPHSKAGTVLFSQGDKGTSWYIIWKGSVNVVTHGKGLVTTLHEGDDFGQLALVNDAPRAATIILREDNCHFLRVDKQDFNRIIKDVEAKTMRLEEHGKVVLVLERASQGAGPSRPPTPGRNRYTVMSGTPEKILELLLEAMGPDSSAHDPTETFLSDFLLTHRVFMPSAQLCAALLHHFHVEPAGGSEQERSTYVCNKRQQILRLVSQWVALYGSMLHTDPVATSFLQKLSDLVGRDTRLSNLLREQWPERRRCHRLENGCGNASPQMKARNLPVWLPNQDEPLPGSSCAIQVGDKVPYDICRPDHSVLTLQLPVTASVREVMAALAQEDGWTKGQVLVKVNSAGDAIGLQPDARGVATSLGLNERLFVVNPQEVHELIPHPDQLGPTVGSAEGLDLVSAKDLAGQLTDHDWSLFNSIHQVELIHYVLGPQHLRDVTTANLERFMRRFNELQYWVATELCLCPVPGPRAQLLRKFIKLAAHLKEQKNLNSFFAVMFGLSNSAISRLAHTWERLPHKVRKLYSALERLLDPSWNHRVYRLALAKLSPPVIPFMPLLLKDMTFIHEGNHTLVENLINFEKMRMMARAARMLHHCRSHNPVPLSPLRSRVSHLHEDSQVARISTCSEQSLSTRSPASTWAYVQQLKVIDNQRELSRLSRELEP
Kind of experiment: 8-NBD-cAMP competition binding assay, EPAC1-ΔDEP. Conditions: eleven-point dose-response 1-100 µM; mean ± SEM. The source says:
Recombinant Protein Purification.
8-NBD-cAMP Competition Binding Assay.

A further experiment has as its target T2, EPAC1 (Homo sapiens, UniProt O95398).
T2 sequence (O95398 1-923): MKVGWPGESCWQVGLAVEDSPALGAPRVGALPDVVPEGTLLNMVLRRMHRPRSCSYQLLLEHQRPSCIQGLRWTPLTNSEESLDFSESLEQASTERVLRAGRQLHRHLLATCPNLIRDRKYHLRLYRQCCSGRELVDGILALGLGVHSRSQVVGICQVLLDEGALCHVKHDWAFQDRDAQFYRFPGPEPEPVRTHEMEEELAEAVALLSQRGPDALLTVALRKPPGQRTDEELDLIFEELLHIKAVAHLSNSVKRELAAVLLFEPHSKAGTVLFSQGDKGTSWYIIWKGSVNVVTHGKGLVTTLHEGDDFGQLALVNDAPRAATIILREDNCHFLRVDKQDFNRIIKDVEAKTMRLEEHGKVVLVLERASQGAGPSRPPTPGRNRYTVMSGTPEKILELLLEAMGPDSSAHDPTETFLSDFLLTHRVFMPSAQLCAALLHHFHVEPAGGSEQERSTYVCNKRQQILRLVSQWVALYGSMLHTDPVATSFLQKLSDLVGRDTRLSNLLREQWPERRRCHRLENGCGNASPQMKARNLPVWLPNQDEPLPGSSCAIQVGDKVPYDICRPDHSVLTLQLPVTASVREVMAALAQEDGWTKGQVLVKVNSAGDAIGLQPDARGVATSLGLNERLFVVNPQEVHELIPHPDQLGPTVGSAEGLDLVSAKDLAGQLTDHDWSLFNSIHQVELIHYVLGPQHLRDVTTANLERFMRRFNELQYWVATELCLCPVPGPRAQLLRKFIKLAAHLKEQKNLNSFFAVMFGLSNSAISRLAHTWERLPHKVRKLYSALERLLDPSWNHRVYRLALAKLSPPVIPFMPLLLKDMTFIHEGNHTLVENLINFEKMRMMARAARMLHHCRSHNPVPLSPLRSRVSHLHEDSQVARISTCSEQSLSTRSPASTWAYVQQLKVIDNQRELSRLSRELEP
The experiment can be described thus: Protein stability of EPAC1 in cells following long-term exposure. Conditions: compared with I942. In kind it is cell-based. Further details: expressed in transfected cells; host or cells: U2OS cells (from Professor Holger Rehmann, University of Utrecht).

For a further experiment, the system named is PKA. Kind of experiment: PKA activation (VASP phosphorylation, western blot) in U2OS-EPAC1 cells. The experiment is classed as cell-based. Conditions: 100 µM test compound, FIG. 5. Here is the method: FIG. 5. PKA activation results of representative newly discovered EPAC1 agonists. U2OS cells stably transfected with EPAC1 were treated with 100 µM of test compounds, cyclic nucleotide EPAC1 agonist 2 or 10 µM of forskolin and rolipram (F/R), cyclic AMP elevating agents, as a positive control. Active, phosphorylated VASP (P-VASP) was visualized using a phospho-specific, anti-VASP antibody. None of the test compounds promoted VASP phosphorylation in cells.
PKA and GPCR Selectivity. To investigate the EPAC selectivity of these EPAC agonists, compounds 25g, 25n and 25q were selected for further PKA activation studies, and the results are shown in FIG. 5. PKA activation was assessed by monitoring phosphorylation state of a downstream PKA effector, vasodilator-stimulated phosphoprotein (VASP).
SDS-PAGE and Western Blotting. Samples were prepared by mixing equal volumes of cell lysate and 2x SDS sample loading buffer and denaturing for 5 min at 95° C., unless indicated otherwise. Protein samples were separated by SDS-PAGE on 10% (v/v) polyacrylamide gels, for EPAC1 and VASP, or on 12.5% (v/v), for Rap1, and then transferred to nitrocellulose membranes. Membranes were then blocked for 1 h at room temperature in 5% (w/v) non-fat dry milk or 5% (w/v) BSA in Tris-buffered saline containing 0.1% (v/v) Tween 20, followed by an overnight incubation with primary antibody diluted in blocking buffer at 4° C. Subsequently, the membranes were incubated with appropriate horseradish peroxidase-conjugated secondary antibodies for 1 h at room temperature. For signal detection the SuperSignal West Pico PLUS Chemiluminescent Substrate (Thermo Scientific) was used. Images were acquired using the Fusion FX7 camera platform (Vilber). Densitometry was performed with ImageJ.
For orientation: A western blot detects proteins with antibodies after separation by electrophoresis.

Each structure is given as a SMILES string.

One may read the IC50 as the concentration that inhibits the measured activity by half. A high value points to lower potency.

Consider `COc1ccc2ccc(OCC(=O)NS(=O)(=O)c3ccc(N)cc3OC)cc2c1` [Compound 25n, N-((4-Amino-2-methoxyphenyl)sulfonyl)-2-((7-methoxynaphthalen-2-yl)oxy)acetamide], for which the “off-target effects towards GPCR proteins” value in the experiment with over 40 GPCR targets is recorded as “none of them displays the potential off-target effects”. The compound further returned an IC50 on EPAC1-ΔDEP (aa. 149-881) of 0.6 µM. Besides, the “tolerability in terms of protein stability of EPAC1 in cells” value on EPAC1 is on record as “better tolerated”. Further, the “PKA activation (VASP phosphorylation)” value in the experiment with PKA was “did not induce any PKA activation”.
Turning to `COc1ccc2ccc(OCC(=O)NS(=O)(=O)c3ccc4ccccc4c3)cc2c1` [Compound 25q, 2-((7-Methoxynaphthalen-2-yl)oxy)-N-(naphthalen-2-ylsulfonyl)acetamide], the “off-target effects towards GPCR proteins” value with over 40 GPCR targets is “none of them displays the potential off-target effects”. In addition, on EPAC1-ΔDEP (aa. 149-881), the IC50 was 0.5 µM. Besides, the “PKA activation (VASP phosphorylation)” value in the experiment with PKA was “did not induce any PKA activation”.
As for `COc1ccc(S(=O)(=O)NC(=O)COc2ccc3ccccc3c2)c(OC)c1` [Compound 25g, N-((2,4-Dimethoxyphenyl)sulfonyl)-2-(naphthalen-2-yloxy)acetamide], at EPAC1-ΔDEP (aa. 149-881), the IC50 was 4.9 µM. Moreover, the “PKA activation (VASP phosphorylation)” value in the experiment on PKA is “did not induce any PKA activation”.
